This is an account of results in patent publication US10202377B2, “3-(1H-benzo[D]imidazol-2-yl)-1H-pyrazolo[3,4-C]pyridine and therapeutic uses thereof” (Samumed, LLC, priority 2014, dated 2019).

Assay [1] concerns primary human fibroblasts derived from IPF patients (LL29 cells). The assay can be described thus: Inhibition of fibrosis (αSMA staining) in TGF-β1-treated primary human fibroblasts from IPF patients. It is filed as cell-based. The conditions noted are these: Fibroblast, 96 h, TGF-β1 20 ng/mL, 4 days. The procedure:
The above synthesized compounds were screened using primary human fibroblasts (derived from IPF patients) treated with TGF-β1 to determine their ability to inhibit the fibrotic process.
Compound Screening: Each compound was dissolved in DMSO as a 10 mM stock and used to prepare compound source plates. […] LL29 cells were plated at 1,500 cells/well in 80 μl/well F12 medium supplemented with 1% Fetal Bovine Serum. One hour after addition of the cells, TGF-β1 (Peprotech; 20 ng/mL) was added to the plates to induce fibrosis (ref. 1 and 2 above). Wells treated with TGF-β1 and containing DMSO were used as controls. Cells were incubated at 37° C. and 5% CO2 for 4 days. Following incubation for 4 days, SYTOX green nucleic acid stain (Life Technologies [Thermo Fisher Scientific]) was added to the wells at a final concentration of 1 uM and incubated at room temperature for 30 min. Cells were then fixed using 4% formaldehyde (Electron Microscopy Sciences), washed 3 times with PBS followed by blocking and permeabilization using 3% Bovine Serum Albumin (BSA; Sigma) and 0.3% Triton X-100 (Sigma) in PBS. Cells were then stained with antibody specific to α-smooth muscle actin (aSMA; Abcam) (ref. 1 and 2 above) in 3% Bovine Serum Albumin (BSA; Sigma) and 0.3% Triton X-100 (Sigma) in PBS, and incubated overnight at 4° C. […] Dead or apoptotic cells were excluded from analysis based on positive SYTOX green staining. % of total cells positive for αSMA were counted in each well and normalized to the average of 11 wells treated with TGF-β1 on the same plate using Dotmatics' Studies Software. […] The EC50 values are reported.

Assay [2] concerns Wnt activity (Sp5-Luc reporter, SW480 colon carcinoma cells). The experiment in a line: Sp5-Luc Wnt reporter gene screening assay in SW480 colon carcinoma cells. The conditions noted are these: Homo sapiens. (In general: Reporter assays use an easily measured gene product as a stand-in for the process of interest.)

Regarding `O=C(Nc1cncc(-c2cc3c(-c4nc5c(N6CCCCC6)cccc5[nH]4)n[nH]c3cn2)c1)C1CC1` [Compound 175, N-(5-(3-(4-(Piperidin-1-yl)-1H-benzo[d]imidazol-2-yl)-1H-pyrazolo[3,4-c]pyridin-5-yl)pyridin-3-yl)cyclopropanecarboxamide], the EC50 (commonly the concentration at which the effect is half-maximal) in assay [1] worked out at 187 nM. In assay [2], the IC50 (commonly the concentration that inhibits the measured activity by half) worked out at 76.9 nM.
`FC1(F)CCN(Cc2cncc(-c3cc4c(-c5nc6c(N7CCCCC7)cccc6[nH]5)n[nH]c4cn3)c2)C1` [Compound 181, 5-(5-((3,3-Difluoropyrrolidin-1-yl)methyl)pyridin-3-yl)-3-(4-(piperidin-1-yl)-1H-benzo[d]imidazol-2-yl)-1H-pyrazolo[3,4-c]pyridine] registered an EC50 in assay [1] of 9 nM. This compound came in with an IC50 in assay [2] of 87.1 nM.
For `Cc1cn(-c2cccc3[nH]c(-c4n[nH]c5cnc(-c6cncc(NC(=O)C(C)(C)C)c6)cc45)nc23)cn1` [Compound 190, N-(5-(3-(4-(4-Methyl-1H-imidazol-1-yl)-1H-benzo[d]imidazol-2-yl)-1H-pyrazolo[3,4-c]pyridin-5-yl)pyridin-3-yl)pivalamide], the half-maximal effective concentration (EC50) in assay [1] is 9 nM. This compound also gave an IC50 in assay [2] of 53.5 nM.
Compound `Cc1cn(-c2cccc3[nH]c(-c4n[nH]c5cnc(-c6cncc(NC(=O)C7CCC7)c6)cc45)nc23)cn1` [Compound 202, N-(5-(3-(4-(4-Methyl-1H-imidazol-1-yl)-1H-benzo[d]imidazol-2-yl)-1H-pyrazolo[3,4-c]pyridin-5-yl)pyridin-3-yl)cyclobutanecarboxamide] came in with an EC50 in assay [1] of 9 nM. In assay [2], the IC50 was 63.2 nM.
The compound `CN1CCN(c2cccc3[nH]c(-c4n[nH]c5cnc(-c6cncc(NC(=O)C7CCCC7)c6)cc45)nc23)CC1` [Compound 229, N-(5-(3-(4-(4-Methylpiperazin-1-yl)-1H-benzo[d]imidazol-2-yl)-1H-pyrazolo[3,4-c]pyridin-5-yl)pyridin-3-yl)cyclopentanecarboxamide] came in with an EC50 in assay [1] of 9990 nM. In addition, the IC50 in assay [2] stood at 628 nM.
With `CN1CCN(c2cccc3[nH]c(-c4n[nH]c5cnc(-c6cncnc6)cc45)nc23)CC1` [Compound 234, 3-(4-(4-Methylpiperazin-1-yl)-1H-benzo[d]imidazol-2-yl)-5-(pyrimidin-5-yl)-1H-pyrazolo[3,4-c]pyridine], the midpoint of the response in assay [1], the EC50, lay at 9 nM. Besides, the IC50 in assay [2] was found to be 798 nM.
The compound `O=C(Cc1ccccc1)Nc1cncc(-c2cc3c(-c4nc5ccccc5[nH]4)n[nH]c3cn2)c1` [Compound 244, N-(5-(3-(1H-Benzo[d]imidazol-2-yl)-1H-pyrazolo[3,4-c]pyridin-5-yl)pyridin-3-yl)-2-phenylacetamide] registered an EC50 in assay [1] of 1960 nM. Further, in assay [2], the IC50 was determined as 211 nM.
Turning to `CC(C)(C)CC(=O)Nc1cncc(-c2cc3c(-c4nc5ccccc5[nH]4)n[nH]c3cn2)c1` [Compound 250, N-(5-(3-(1H-Benzo[d]imidazol-2-yl)-1H-pyrazolo[3,4-c]pyridin-5-yl)pyridin-3-yl)-3,3-dimethylbutanamide], the EC50 in assay [1] was found to be 258 nM. In assay [2], the IC50 turned out to be 183 nM.
In turn, `Cc1ccncc1-c1cc2c(-c3nc4c(-c5ccsc5)cccc4[nH]3)n[nH]c2cn1` [Compound 265, 5-(4-Methylpyridin-3-yl)-3-(4-(thiophen-3-yl)-1H-benzo[d]imidazol-2-yl)-1H-pyrazolo[3,4-c]pyridine] returned an EC50 in assay [1] of 9 nM. The compound further gave an IC50 in assay [2] of 19.4 nM.
As for `CC(C)(C)C(=O)Nc1cncc(-c2cc3c(-c4nc5c(-c6ccsc6)cccc5[nH]4)n[nH]c3cn2)c1` [Compound 268, N-(5-(3-(4-(Thiophen-3-yl)-1H-benzo[d]imidazol-2-yl)-1H-pyrazolo[3,4-c]pyridin-5-yl)pyridin-3-yl)pivalamide], the response in assay [1] was half-maximal at 9 nM (EC50). The half-maximal inhibitory concentration (IC50) in assay [2] turned out to be 76.1 nM.
For `O=C(Nc1cncc(-c2cc3c(-c4nc5c(-c6ccsc6)cccc5[nH]4)n[nH]c3cn2)c1)c1ccccc1` [Compound 271, N-(5-(3-(4-(Thiophen-3-yl)-1H-benzo[d]imidazol-2-yl)-1H-pyrazolo[3,4-c]pyridin-5-yl)pyridin-3-yl)benzamide], in that order: 9 nM and 53.8 nM.
For `CCCC(=O)Nc1cncc(-c2cc3c(-c4nc5c(-c6ccsc6)cccc5[nH]4)n[nH]c3cn2)c1` [Compound 277, N-(5-(3-(4-(Thiophen-3-yl)-1H-benzo[d]imidazol-2-yl)-1H-pyrazolo[3,4-c]pyridin-5-yl)pyridin-3-yl)butyramide], in assay [1], it took 9 nM to reach a half-maximal effect (EC50). Moreover, in assay [2], half-maximal inhibition (IC50) was put at 43.5 nM.
In assay [1], `c1ccc(CNCc2cncc(-c3cc4c(-c5nc6c(-c7ccsc7)cccc6[nH]5)n[nH]c4cn3)c2)cc1` [Compound 283, N-Benzyl-1-(5-(3-(4-(thiophen-3-yl)-1H-benzo[d]imidazol-2-yl)-1H-pyrazolo[3,4-c]pyridin-5-yl)pyridin-3-yl)methanamine] displayed an EC50 of 9 nM. In assay [2], this compound registered an IC50 of 30.9 nM.
`CCNCc1cncc(-c2cc3c(-c4nc5c(-c6ccoc6)cccc5[nH]4)n[nH]c3cn2)c1` [Compound 292, N-((5-(3-(4-(Furan-3-yl)-1H-benzo[d]imidazol-2-yl)-1H-pyrazolo[3,4-c]pyridin-5-yl)pyridin-3-yl)methyl)ethanamine] returned an EC50 in assay [1] of 9 nM. This compound also showed an IC50 in assay [2] of 29.6 nM.
For `CC(C)(C)C(=O)Nc1cncc(-c2cc3c(-c4nc5c(-c6ccoc6)cccc5[nH]4)n[nH]c3cn2)c1` [Compound 294, N-(5-(3-(4-(Furan-3-yl)-1H-benzo[d]imidazol-2-yl)-1H-pyrazolo[3,4-c]pyridin-5-yl)pyridin-3-yl)pivalamide], in that order: 9 nM and 48.6 nM.
Consider `CC(C)C(=O)Nc1cncc(-c2cc3c(-c4nc5c(-c6ccoc6)cccc5[nH]4)n[nH]c3cn2)c1` [Compound 295, N-(5-(3-(4-(Furan-3-yl)-1H-benzo[d]imidazol-2-yl)-1H-pyrazolo[3,4-c]pyridin-5-yl)pyridin-3-yl)isobutyramide], for which the EC50 in assay [1] was found to be 249 nM. Moreover, the IC50 in assay [2] turned out to be 39.3 nM.
For `CC(C)Nc1cncc(-c2cc3c(-c4nc5c(-c6ccoc6)cccc5[nH]4)n[nH]c3cn2)c1` [Compound 298, 5-(3-(4-(Furan-3-yl)-1H-benzo[d]imidazol-2-yl)-1H-pyrazolo[3,4-c]pyridin-5-yl)-N-isopropylpyridin-3-amine], the EC50 in assay [1] worked out at 9 nM. In assay [2], this compound returned an IC50 of 12.9 nM.
In assay [1], `c1cc(-c2ccoc2)c2nc(-c3n[nH]c4cnc(-c5cncc(CNCC6CCCC6)c5)cc34)[nH]c2c1` [Compound 310, 1-Cyclopentyl-N-((5-(3-(4-(furan-3-yl)-1H-benzo[d]imidazol-2-yl)-1H-pyrazolo[3,4-c]pyridin-5-yl)pyridin-3-yl)methyl)methanamine] registered an EC50 of 83 nM. Further, the IC50 in assay [2] came out at 58.8 nM.
For `CCC(=O)Nc1cncc(-c2cc3c(-c4nc5c(-c6cccs6)cccc5[nH]4)n[nH]c3cn2)c1` [Compound 313, N-(5-(3-(4-(Thiophen-2-yl)-1H-benzo[d]imidazol-2-yl)-1H-pyrazolo[3,4-c]pyridin-5-yl)pyridin-3-yl)propionamide], in that order: 455 nM and 126 nM.
In turn, `CC(C)(C)C(=O)Nc1cncc(-c2cc3c(-c4nc5c(-c6cccs6)cccc5[nH]4)n[nH]c3cn2)c1` [Compound 320, N-(5-(3-(4-(Thiophen-2-yl)-1H-benzo[d]imidazol-2-yl)-1H-pyrazolo[3,4-c]pyridin-5-yl)pyridin-3-yl)pivalamide] registered a half-maximal effective concentration (EC50) in assay [1] of 96 nM. In assay [2], this compound displayed an IC50 of 56.6 nM.
The compound `CC(C)C(=O)Nc1cncc(-c2cc3c(-c4nc5c(-c6cccs6)cccc5[nH]4)n[nH]c3cn2)c1` [Compound 321, N-(5-(3-(4-(Thiophen-2-yl)-1H-benzo[d]imidazol-2-yl)-1H-pyrazolo[3,4-c]pyridin-5-yl)pyridin-3-yl)isobutyramide] showed an EC50 in assay [1] of 306 nM. This compound also returned an IC50 in assay [2] of 16.3 nM.
For `CN(C)Cc1cncc(-c2cc3c(-c4nc5c(-c6cccs6)cccc5[nH]4)n[nH]c3cn2)c1` [Compound 325, N,N-Dimethyl-1-(5-(3-(4-(thiophen-2-yl)-1H-benzo[d]imidazol-2-yl)-1H-pyrazolo[3,4-c]pyridin-5-yl)pyridin-3-yl)methanamine], in that order: 9 nM and 26.7 nM.
In assay [1], `CCCC(=O)Nc1cncc(-c2cc3c(-c4nc5c(-c6cccs6)cccc5[nH]4)n[nH]c3cn2)c1` [Compound 329, N-(5-(3-(4-(Thiophen-2-yl)-1H-benzo[d]imidazol-2-yl)-1H-pyrazolo[3,4-c]pyridin-5-yl)pyridin-3-yl)butyramide] came in with an EC50 of 67 nM. In assay [2], it took 56 nM to reach half-maximal inhibition (IC50).
For the compound `FC1(F)CCN(Cc2cncc(-c3cc4c(-c5nc6c(-c7cccs7)cccc6[nH]5)n[nH]c4cn3)c2)C1` [Compound 337, 5-(5-((3,3-Difluoropyrrolidin-1-yl)methyl)pyridin-3-yl)-3-(4-(thiophen-2-yl)-1H-benzo[d]imidazol-2-yl)-1H-pyrazolo[3,4-c]pyridine], in assay [1], the EC50 was 9 nM. This compound also gave an IC50 in assay [2] of 90.8 nM.
